In US4508663A, “Process for preparing thiosulfenamide derivatives of N-phosphonomethylglycinonitriles” (Monsanto Company, priority 1983, dated 1985):

Key:
Assay in all cases: post-emergence herbicidal activity, greenhouse
Type in all cases: in vivo
Barnyardgrass = test system: Barnyardgrass
Outline: (§1)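 Plants grown from seed or perennial propagules in greenhouse soil pans were sprayed at two to three weeks with compound solution or suspension containing about 0.4% emulsifier, at the stated application rates. Injury relative to untreated controls was scored at approximately two and four weeks after treatment on a post-emergence activity index.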

Canada Thistle = settings: Table I, 4 WAT
Outline: as §1

Cocklebur = test system: Cocklebur
Outline: as §1

Crabgrass = settings: Table II
Outline: as §1

Downy Brome = test system: Downy Brome
Outline: as §1

Hemp Sesbania = settings: Table II
Outline: as §1

Johnsongrass = settings: Table I, 4 WAT
Outline: as §1

Lambsquarters = test system: Lambsquarters
Outline: as §1

Morningglory = test system: Morningglory
Outline: as §1

Panicum Spp = settings: Table II
Outline: as §1

Quackgrass = settings: Table I, 4 WAT
Outline: as §1

Rice = settings: Table II
Outline: as §1

Smartweed = settings: Table I, 4 WAT
Outline: as §1

Sorghum = settings: Table II
Outline: as §1

Soybean = settings: Table II
Outline: as §1

Sugar Beet = settings: Table II
Outline: as §1

Velvetleaf = test system: Velvetleaf
Outline: as §1

Wheat = settings: Table II
Outline: as §1

Wild Buckwheat = settings: Table II
Outline: as §1

Yellow Nutsedge = settings: Table I, 4 WAT
Outline: as §1

## CC(C)SSN(CC#N)CP(=O)(Oc1ccccc1)Oc1ccccc1 [VI, Phosphonic acid, [[(cyanomethyl)[(1-methylethyl)-dithio]amino]methyl]-, diphenyl ester]
Barnyardgrass; Table I, 4 WAT, 5.6 kg/h
  post-emergence herbicidal activity index: 2 (50-74% control)
Barnyardgrass; Table I, 4 WAT, 11.2 kg/h
  post-emergence herbicidal activity index: 2 (50-74% control)
Barnyardgrass; Table II, 2 WAT, 1.12 kg/h
  post-emergence herbicidal activity index: 1 (25-49% control)
Barnyardgrass; Table II, 2 WAT, 5.6 kg/h
  post-emergence herbicidal activity index: 2 (50-74% control)
Barnyardgrass; Table II, 4 WAT, 0.28 kg/h
  post-emergence herbicidal activity index: 0 (0-24% control)
Barnyardgrass; Table II, 4 WAT, 1.12 kg/h
  post-emergence herbicidal activity index: 0 (0-24% control)
Barnyardgrass; Table II, 4 WAT, 5.6 kg/h
  post-emergence herbicidal activity index: 3 (75-99% control)
Canada Thistle; 5.6 kg/h
  post-emergence herbicidal activity index: 2 (50-74% control)
Canada Thistle; 11.2 kg/h
  post-emergence herbicidal activity index: 2 (50-74% control)
Cocklebur; Table I, 4 WAT, 5.6 kg/h
  post-emergence herbicidal activity index: 2 (50-74% control)
Cocklebur; Table I, 4 WAT, 11.2 kg/h
  post-emergence herbicidal activity index: 2 (50-74% control)
Cocklebur; Table II, 2 WAT, 1.12 kg/h
  post-emergence herbicidal activity index: 1 (25-49% control)
Cocklebur; Table II, 2 WAT, 5.6 kg/h
  post-emergence herbicidal activity index: 2 (50-74% control)
Cocklebur; Table II, 4 WAT, 0.28 kg/h
  post-emergence herbicidal activity index: 0 (0-24% control)
Cocklebur; Table II, 4 WAT, 1.12 kg/h
  post-emergence herbicidal activity index: 1 (25-49% control)
Cocklebur; Table II, 4 WAT, 5.6 kg/h
  post-emergence herbicidal activity index: 3 (75-99% control)
Crabgrass; 2 WAT, 1.12 kg/h
  post-emergence herbicidal activity index: 1 (25-49% control)
Crabgrass; 2 WAT, 5.6 kg/h
  post-emergence herbicidal activity index: 3 (75-99% control)
Crabgrass; 4 WAT, 0.28 kg/h
  post-emergence herbicidal activity index: 1 (25-49% control)
Crabgrass; 4 WAT, 1.12 kg/h
  post-emergence herbicidal activity index: 1 (25-49% control)
Crabgrass; 4 WAT, 5.6 kg/h
  post-emergence herbicidal activity index: 3 (75-99% control)
Downy Brome; Table I, 4 WAT, 5.6 kg/h
  post-emergence herbicidal activity index: 2 (50-74% control)
Downy Brome; Table I, 4 WAT, 11.2 kg/h
  post-emergence herbicidal activity index: 3 (75-99% control)
Downy Brome; Table II, 2 WAT, 1.12 kg/h
  post-emergence herbicidal activity index: 0 (0-24% control)
Downy Brome; Table II, 2 WAT, 5.6 kg/h
  post-emergence herbicidal activity index: 2 (50-74% control)
Downy Brome; Table II, 4 WAT, 0.28 kg/h
  post-emergence herbicidal activity index: 0 (0-24% control)
Downy Brome; Table II, 4 WAT, 1.12 kg/h
  post-emergence herbicidal activity index: 0 (0-24% control)
Downy Brome; Table II, 4 WAT, 5.6 kg/h
  post-emergence herbicidal activity index: 2 (50-74% control)
Hemp Sesbania; 2 WAT, 1.12 kg/h
  post-emergence herbicidal activity index: 0 (0-24% control)
Hemp Sesbania; 2 WAT, 5.6 kg/h
  post-emergence herbicidal activity index: 1 (25-49% control)
Hemp Sesbania; 4 WAT, 0.28 kg/h
  post-emergence herbicidal activity index: 0 (0-24% control)
Hemp Sesbania; 4 WAT, 1.12 kg/h
  post-emergence herbicidal activity index: 0 (0-24% control)
Hemp Sesbania; 4 WAT, 5.6 kg/h
  post-emergence herbicidal activity index: 1 (25-49% control)
Johnsongrass; 5.6 kg/h
  post-emergence herbicidal activity index: 3 (75-99% control)
Johnsongrass; 11.2 kg/h
  post-emergence herbicidal activity index: 3 (75-99% control)
Lambsquarters; Table I, 4 WAT, 5.6 kg/h
  post-emergence herbicidal activity index: 3 (75-99% control)
Lambsquarters; Table I, 4 WAT, 11.2 kg/h
  post-emergence herbicidal activity index: 4 (100% control)
Lambsquarters; Table II, 2 WAT, 1.12 kg/h
  post-emergence herbicidal activity index: 3 (75-99% control)
Lambsquarters; Table II, 2 WAT, 5.6 kg/h
  post-emergence herbicidal activity index: 3 (75-99% control)
Lambsquarters; Table II, 4 WAT, 0.28 kg/h
  post-emergence herbicidal activity index: 0 (0-24% control)
Lambsquarters; Table II, 4 WAT, 1.12 kg/h
  post-emergence herbicidal activity index: 3 (75-99% control)
Lambsquarters; Table II, 4 WAT, 5.6 kg/h
  post-emergence herbicidal activity index: 3 (75-99% control)
Morningglory; Table I, 4 WAT, 5.6 kg/h
  post-emergence herbicidal activity index: 2 (50-74% control)
Morningglory; Table I, 4 WAT, 11.2 kg/h
  post-emergence herbicidal activity index: 2 (50-74% control)
Morningglory; Table II, 2 WAT, 1.12 kg/h
  post-emergence herbicidal activity index: 1 (25-49% control)
Morningglory; Table II, 2 WAT, 5.6 kg/h
  post-emergence herbicidal activity index: 1 (25-49% control)
Morningglory; Table II, 4 WAT, 0.28 kg/h
  post-emergence herbicidal activity index: 0 (0-24% control)
Morningglory; Table II, 4 WAT, 1.12 kg/h
  post-emergence herbicidal activity index: 0 (0-24% control)
Morningglory; Table II, 4 WAT, 5.6 kg/h
  post-emergence herbicidal activity index: 1 (25-49% control)
Panicum Spp; 2 WAT, 1.12 kg/h
  post-emergence herbicidal activity index: 0 (0-24% control)
Panicum Spp; 2 WAT, 5.6 kg/h
  post-emergence herbicidal activity index: 1 (25-49% control)
Panicum Spp; 4 WAT, 0.28 kg/h
  post-emergence herbicidal activity index: 0 (0-24% control)
Panicum Spp; 4 WAT, 1.12 kg/h
  post-emergence herbicidal activity index: 0 (0-24% control)
Panicum Spp; 4 WAT, 5.6 kg/h
  post-emergence herbicidal activity index: 1 (25-49% control)
Quackgrass; 5.6 kg/h
  post-emergence herbicidal activity index: 0 (0-24% control)
Quackgrass; 11.2 kg/h
  post-emergence herbicidal activity index: 1 (25-49% control)
Rice; 2 WAT, 1.12 kg/h
  post-emergence herbicidal activity index: 0 (0-24% control)
Rice; 2 WAT, 5.6 kg/h
  post-emergence herbicidal activity index: 0 (0-24% control)
Rice; 4 WAT, 0.28 kg/h
  post-emergence herbicidal activity index: 0 (0-24% control)
Rice; 4 WAT, 1.12 kg/h
  post-emergence herbicidal activity index: 0 (0-24% control)
Rice; 4 WAT, 5.6 kg/h
  post-emergence herbicidal activity index: 0 (0-24% control)
Smartweed; 5.6 kg/h
  post-emergence herbicidal activity index: 2 (50-74% control)
Smartweed; 11.2 kg/h
  post-emergence herbicidal activity index: 2 (50-74% control)
Sorghum; 2 WAT, 1.12 kg/h
  post-emergence herbicidal activity index: 1 (25-49% control)
Sorghum; 2 WAT, 5.6 kg/h
  post-emergence herbicidal activity index: 2 (50-74% control)
Sorghum; 4 WAT, 0.28 kg/h
  post-emergence herbicidal activity index: 0 (0-24% control)
Sorghum; 4 WAT, 1.12 kg/h
  post-emergence herbicidal activity index: 1 (25-49% control)
Sorghum; 4 WAT, 5.6 kg/h
  post-emergence herbicidal activity index: 3 (75-99% control)
Soybean; 2 WAT, 1.12 kg/h
  post-emergence herbicidal activity index: 0 (0-24% control)
Soybean; 2 WAT, 5.6 kg/h
  post-emergence herbicidal activity index: 1 (25-49% control)
Soybean; 4 WAT, 0.28 kg/h
  post-emergence herbicidal activity index: 0 (0-24% control)
Soybean; 4 WAT, 1.12 kg/h
  post-emergence herbicidal activity index: 0 (0-24% control)
Soybean; 4 WAT, 5.6 kg/h
  post-emergence herbicidal activity index: 1 (25-49% control)
Sugar Beet; 2 WAT, 1.12 kg/h
  post-emergence herbicidal activity index: 0 (0-24% control)
Sugar Beet; 2 WAT, 5.6 kg/h
  post-emergence herbicidal activity index: 0 (0-24% control)
Sugar Beet; 4 WAT, 0.28 kg/h
  post-emergence herbicidal activity index: 0 (0-24% control)
Sugar Beet; 4 WAT, 1.12 kg/h
  post-emergence herbicidal activity index: 0 (0-24% control)
Sugar Beet; 4 WAT, 5.6 kg/h
  post-emergence herbicidal activity index: 1 (25-49% control)
Velvetleaf; Table I, 4 WAT, 5.6 kg/h
  post-emergence herbicidal activity index: 1 (25-49% control)
Velvetleaf; Table I, 4 WAT, 11.2 kg/h
  post-emergence herbicidal activity index: 2 (50-74% control)
Velvetleaf; Table II, 2 WAT, 1.12 kg/h
  post-emergence herbicidal activity index: 0 (0-24% control)
Velvetleaf; Table II, 2 WAT, 5.6 kg/h
  post-emergence herbicidal activity index: 1 (25-49% control)
Velvetleaf; Table II, 4 WAT, 0.28 kg/h
  post-emergence herbicidal activity index: 0 (0-24% control)
Velvetleaf; Table II, 4 WAT, 1.12 kg/h
  post-emergence herbicidal activity index: 1 (25-49% control)
Velvetleaf; Table II, 4 WAT, 5.6 kg/h
  post-emergence herbicidal activity index: 2 (50-74% control)
Wheat; 2 WAT, 1.12 kg/h
  post-emergence herbicidal activity index: 1 (25-49% control)
Wheat; 2 WAT, 5.6 kg/h
  post-emergence herbicidal activity index: 1 (25-49% control)
Wheat; 4 WAT, 0.28 kg/h
  post-emergence herbicidal activity index: 0 (0-24% control)
Wheat; 4 WAT, 1.12 kg/h
  post-emergence herbicidal activity index: 0 (0-24% control)
Wheat; 4 WAT, 5.6 kg/h
  post-emergence herbicidal activity index: 1 (25-49% control)
Wild Buckwheat; 2 WAT, 1.12 kg/h
  post-emergence herbicidal activity index: 0 (0-24% control)
Wild Buckwheat; 2 WAT, 5.6 kg/h
  post-emergence herbicidal activity index: 1 (25-49% control)
Wild Buckwheat; 4 WAT, 0.28 kg/h
  post-emergence herbicidal activity index: 0 (0-24% control)
Wild Buckwheat; 4 WAT, 1.12 kg/h
  post-emergence herbicidal activity index: 0 (0-24% control)
Wild Buckwheat; 4 WAT, 5.6 kg/h
  post-emergence herbicidal activity index: 1 (25-49% control)
Yellow Nutsedge; 5.6 kg/h
  post-emergence herbicidal activity index: 0 (0-24% control)
Yellow Nutsedge; 11.2 kg/h
  post-emergence herbicidal activity index: 3 (75-99% control)
